Seven molecules from patent publication US9925205B2, “Compositions of multicationic drugs for reducing interactions with polyanionic biomolecules and methods of use thereof” (Insmed Incorporated, priority 2007, dated 2018) can be followed below.

Several values for one entry are separate records, joined by “and”; a condition that tells them apart may be missing. Identical values can stand only once. Counter-ions that a name gives are not always drawn.

A short description of assay [1]: Effect of mono- and multi-protonic acid salts on binding of amikacin to alginate. Here is the method: Various salts were tested for their ability to compete with alginate. Amikacin sulfate (0.1 mL of 1 mg/ml) was added to 0.4 mL solution of 1% Na Alginate and 0.5 mL solution of 200 mM Na salt of an Acid at pH 6.0. Samples were incubated 10 minutes at 37° C. and centrifuged in Centricon-10 for 30 minutes at 4000 rpm. Filtrate was diluted 2 fold with TDX buffer and analyzed for AMK.

Assay [2] in a line: Effect of pH on ability of citrate to compete with alginate for amikacin (Centricon-10, TDX). It counts as binding.
Another assay relates to P. Aeruginosa PAC1. Kind of assay: In-vitro bioactivity of amikacin, modified disk Kirby-Bauer agar diffusion method. The assay is classed as cell-based. As to conditions: for Zone size (mm): three values. Here is the method: It has been shown elsewhere […] that amikacin-alginate binding can in fact reduce amikacin bioactivity against PA. One may ask whether binding to citrate will preserve bioactivity or inhibit it similar to alginate. In order to address this, activity of amikacin against P. Aeruginosa PAC1 using modified disk Kirby-Bauer agar diffusion method was tested. […] Absence of supplements was used as a control.
Activity was determined using modified disk Kirby-Bauer agar diffusion method and PAC1 PA strain.

The nature of assay [3]: Effect of pH on ability of citrate to compete with alginate for amikacin (Centricon-10, TDX). The assay is classed as binding. Here is the method:
How pH affects the ability of citrate to compete with alginate for amikacin was also tested. Here 0.5 mL sodium alginate (2%) was mixed with 0.4 mL sodium citrate (200 mM) and 0.1 mL amikacin sulfate (1 mg/mL), giving corresponding final concentrations of 1%, 80 mM, and 100 ug/mL, respectively. Two controls using either alginate or citrate alone were employed. Samples were incubated for 10 minutes at 37° C. and unbound amikacin was separated by centrifuging in Centrico-10 device for 30 minutes at 4000 rpm. Amikacin in permeate was measured by TDX (Abbott) and presented as % of total (Table 3).
This is another data set of the same source.

Assay [4] in a line: Amikacin-citrate binding determined indirectly from competitive binding with alginate (Centricon filter). Also on record: AMKAlg (AMKtot—AMKperm) / AMKfree / AMKcitrate: unit not given here. Here is the method: The binding of a multicationic drug, such as amikacin, to alginate in presence salts of various (one-, two- and three-protonic) acids was tested. To study the effect of binding of amikacin to alginate, amikacin sulfate, Na citrate and Na alginate were mixed at different proportions and then free (unbound) amikacin was separated on a Cetricon-10 filtering device (MWCO 10 kD). In the absence of citrate, amikacin binds to alginate only, and the amikacin-alginate binding coefficient can be calculated from equation: […]
In the presence of citrate, amikacin can bind to both alginate and citrate. The amikacin-citrate complex is not large enough to be retained by Centricon filter and will be measured as “free” amikacin, which is actually a sum of free and citrate bound amikacin. For that reason amikacin-citrate binding can not be measured directly. It can, however, be determined indirectly from competitive binding, knowing amikacin-alginate binding coefficient PAlg.
Amikacin-citrate binding coefficient was Pcit=0.076 mM^−1. Thus in the presence of 1/Pcit˜13 mM citrate the concentration of amikacin bound to citrate is approximately equal to the concentration of free amikacin. As one can see from the above data, citrate can compete for amikacin with alginate thus reducing amount of amikacin bound to alginate. 1% Alginate can reduce AMK free concentration ˜7-fold. Citrate at 40 mM reduces this effect increasing unbound AMK ˜2.5 fold.

Assay [5] can be described thus: Binding of amikacin to alginate in saline, free amikacin separated on Centricon-10 filter. As to conditions: for AMKAlg (bound amikacin, AMKt-AMKf) / AMKAlg/AMKf / AMKfree: saline, no citrate; for AMKfree: total amikacin 92.5 ug/mL. Here is the method: The binding of a multicationic drug, such as amikacin, to alginate in presence salts of various (one-, two- and three-protonic) acids was tested. To study the effect of binding of amikacin to alginate, amikacin sulfate, Na citrate and Na alginate were mixed at different proportions and then free (unbound) amikacin was separated on a Cetricon-10 filtering device (MWCO 10 kD). In the absence of citrate, amikacin binds to alginate only, and the amikacin-alginate binding coefficient can be calculated from equation:
[formula] where bound amikacin can be found by subtracting free from total, and alginate free concentration is assumed to be equal to the total concentration due to excess of alginate over amikacin.
As alginate concentration increases, amikacin free measured in permeate decreases (Table 1). According to Equation 1 the ratio AMKAlg/AMKf should be proportional to the concentration of alginate, and the slope of this dependence should equal to the binding coefficient.
If one use a linear regression, the slope obtained gives us an estimate of the amikacin-alginate binding coefficient of PAlg=0.76 (mg/mL)^−1. This means that in presence of 1/PAlg˜1.3 mg/mL alginate approximately half of all amikacin will be bound to alginate.

[6] abbreviates: 0.1 mL 1 mg/ml amikacin sulfate + 0.4 mL 1% Na Alginate + 0.5 mL 200 mM Na salt of the acid, pH 6.0, 10 minutes at 37° C.
Where [7] appears, read: Alginate 1%, 80 mM Citrate at pH 6-7.
[8] abbreviates: alginate 6 mg/mL, citrate 60 mM.
[9] abbreviates: alginate 10 mg/mL, citrate 40 mM.
[10] abbreviates: alginate 14 mg/mL, citrate 20 mM.
[11] abbreviates: alginate 16 mg/mL, citrate 10 mM.

For the molecule Sodium tartarate, the “Amikacin not bound to alginate (%)” value in assay [1] (setting [6]) is 41.4%; in assay [1] (0.1 mL 1 mg/ml amikacin sulfate + 0.4 mL 1% Na Alginate + 0.5 mL 200 mM Na salt of the acid, pH 6.0, 10 minutes at 37° C., listed as taratrate) it was around 40%.
Regarding `O=C([O-])/C=C\C(=O)[O-].[Na+].[Na+]` [Sodium maleate], the “Amikacin not bound to alginate (%)” value is recorded as 39.4% in assay [1] (setting [6]) and around 40% in assay [1] (0.1 mL 1 mg/ml amikacin sulfate + 0.4 mL 1% Na Alginate + 0.5 mL 200 mM Na salt of the acid, pH 6.0, 10 minutes at 37° C., listed as maleate).
For `CC(=O)[O-].[Na+]` [Sodium acetate], in assay [1] (setting [6]), the “Amikacin not bound to alginate (%)” value turned out to be 11.2%. Further, the “effect of the salt on unbound amikacin (in words)” value in assay [1] (as Table 4) is “not showing any increase in unbound amikacin”.
Regarding `O=C([O-])CCC(=O)[O-].[Na+].[Na+]` [Sodium succinate], the “Amikacin not bound to alginate (%)” value in assay [1] (setting [6]) is on record as 40.2%; in assay [1] (0.1 mL 1 mg/ml amikacin sulfate + 0.4 mL 1% Na Alginate + 0.5 mL 200 mM Na salt of the acid, pH 6.0, 10 minutes at 37° C., listed as succinate), around 40%.
As to `O=C(O)CC(O)(CC(=O)O)C(=O)O` [Sodium citrate], the “Amikacin not bound to alginate (%)” value in assay [1] (setting [6]) turned out to be 72.1%.
As for `NCC[C@H](O)C(=O)N[C@@H]1C[C@H](N)[C@@H](O[C@H]2O[C@H](CN)[C@@H](O)[C@H](O)[C@H]2O)[C@H](O)[C@H]1O[C@H]1O[C@H](CO)[C@@H](O)[C@H](N)[C@H]1O` [amikacin], the “Amikacin not bound to alginate (%)” value in assay [2] (Alg, no Citrate, AMK 0.5 mg/mL) was determined as 14.5%; in assay [3] (Alg + Citrate pH 5, alginate 1%, citrate 80 mM, amikacin 100 ug/mL), 56.4%; in assay [3] (Alg + Citrate pH 6, alginate 1%, citrate 80 mM, amikacin 100 ug/mL) it was 70.4%; in assay [3] (Alg + Citrate pH 7, alginate 1%, citrate 80 mM, amikacin 100 ug/mL), 68.1%; in assay [3] (Alg, no Citrate, alginate 1%, amikacin 100 ug/mL), 11.9%; in assay [3] (Alg, no Citrate, alginate 1%, amikacin 100 ug/mL, listed as AMK) it was 12%. The “Amikacin not bound to alginate (%)” value in assay [3] (Citrate, no Alginate) was determined as 100%; in assay [1] (Control (no acid salt named)) it was 17.7%. Also, in assay [2] (no citrate, total amikacin 0.5 mg/mL), the Alginate binding efficiency is given as 85.5%. Moreover, the “Zone size (mm)” value in the assay with P. Aeruginosa PAC1 (Alginate 1%) is 21 mm; in the assay with P. Aeruginosa PAC1 (Alginate + Citrate) it was 28 mm and 29 mm; in the assay with P. Aeruginosa PAC1 (Citrate 100 mM) it was 28 mm; in the assay with P. Aeruginosa PAC1 (Control, MH medium without supplements), 28 mm and 29 mm. In addition, the “effect on activity of amikacin (in words)” value in the assay with P. Aeruginosa PAC1 (Citrate at concentration 100 mM) is “does not affect activity”; in the assay on P. Aeruginosa PAC1 (both alginate and citrate present), “citrate actually restored activity of amikacin”. Moreover, in assay [3], the “binding capacity of alginate” value was “at least 0.05 mg amikacin per mg alginate”. The “AMK binding to alginate” value in assay [3] (setting [7]) is around 30%. Also, the “unbound AMK” value in assay [3] (setting [7]) is recorded as around 70%. Besides, in assay [3] (Alginate 1%, absence of citrate), the “AMK bound by alginate” value is around 88%. Besides, the “1/Pcit, citrate concentration at which amikacin bound to citrate approximately equals free amikacin” value in assay [4] is around 13 mM. Further, the “increase of unbound AMK by citrate” value in assay [4] (Citrate at 40 mM, 1% Alginate) is around 2.5 fold. Further, the “AMKAlg (AMKtot—AMKperm)” value came to 0 in assay [4] (alginate 0 mg/mL, citrate 0 mM); 40.9 in assay [4] (setting [8]); 60.5 in assay [4] (setting [9]); 77 in assay [4] (setting [10]); 82.4 in assay [4] (setting [11]). Moreover, the AMKcit/AMKf came out at 0 in assay [4] (alginate 0 mg/mL, citrate 0 mM); 4.72 in assay [4] (setting [8]); 3.00 in assay [4] (setting [9]); 1.13 in assay [4] (setting [10]); 0.48 in assay [4] (setting [11]). In addition, the AMKcitrate in assay [4] (alginate 0 mg/mL, citrate 0 mM) is on record as 0; in assay [4] (setting [8]), 42.59; in assay [4] (setting [9]), 24.00; in assay [4] (setting [10]) it was 8.23; in assay [4] (setting [11]), 3.29. In addition, the AMKfree in assay [4] (alginate 0 mg/mL, citrate 0 mM) stood at 92.5; in assay [4] (setting [8]), 9.01; in assay [4] (setting [9]), 8.00; in assay [4] (setting [10]), 7.27; in assay [4] (setting [11]) it was 6.81; in assay [5] (alginate 0 mg/mL) it was 92.5 µg/mL. In addition, the AMKfree in assay [5] (alginate 6 mg/mL) was 20 µg/mL; in assay [5] (alginate 10 mg/mL), 12.6 µg/mL; in assay [5] (alginate 14 mg/mL), 8 µg/mL; in assay [5] (alginate 16 mg/mL), 6.5 µg/mL. Besides, the AMKperm was determined as 92.5 µg/mL in assay [4] (alginate 0 mg/mL, citrate 0 mM); 51.6 µg/mL in assay [4] (setting [8]); 32.0 µg/mL in assay [4] (setting [9]); 15.5 µg/mL in assay [4] (setting [10]); 10.1 µg/mL in assay [4] (setting [11]). For the same molecule, the “Pcit AMK-Citrate binding coefficient” value in assay [4] (slope of AMKcit/AMKf vs citrate concentration) is 0.076 mM⁻¹. Besides, the “1/PAlg, alginate concentration at which approximately half of all amikacin is bound to alginate” value in assay [5] is reported as around 1.3 mg/mL. The “reduction of AMK free concentration by alginate” value in assay [5] (1% Alginate) is around 7 fold. The “AMKAlg (bound amikacin, AMKt-AMKf)” value in assay [5] (alginate 0 mg/mL) turned out to be 0 µg/mL; in assay [5] (alginate 6 mg/mL), 72.5 µg/mL; in assay [5] (alginate 10 mg/mL) it was 79.9 µg/mL; in assay [5] (alginate 14 mg/mL) it was 84.5 µg/mL; in assay [5] (alginate 16 mg/mL), 86 µg/mL. Further, the AMKAlg/AMKf in assay [5] (alginate 0 mg/mL) was determined as 0; in assay [5] (alginate 6 mg/mL), 3.63; in assay [5] (alginate 10 mg/mL) it was 6.34; in assay [5] (alginate 14 mg/mL), 10.56; in assay [5] (alginate 16 mg/mL), 13.23. The “PAlg AMK-Alginate binding coefficient” value in assay [5] (slope of AMKAlg/AMKf vs alginate concentration, linear regression) is 0.76 (mg/ml)^−1.
Take `O=C([O-])CCCC(=O)[O-].[Na+].[Na+]` [Sodium glutarate]: the “Amikacin not bound to alginate (%)” value is reported as 36.7% in assay [1] (setting [6]) and around 40% in assay [1] (0.1 mL 1 mg/ml amikacin sulfate + 0.4 mL 1% Na Alginate + 0.5 mL 200 mM Na salt of the acid, pH 6.0, 10 minutes at 37° C., listed as glutarate).
